In publication PMC4255673 (Analytical Chemistry, 2014):
Entries after “also recorded” stand apart in the source; their conditions may differ. Bridges are numbered along the chain shown (N, C = ends).

Columns and labels:
KDM4C [1] = assay: In vitro TR-FRET demethylase assay / KDM4C inhibition; assay type: biochemical; settings: nonbinding control peptide; assay not described
KDM4C [2] = settings: cell-based assay; cited from earlier work
KDM4C [3] = settings: cited from earlier work; for inhibition constants: TR-FRET demethylase assay; for apparent increase in activity of second generation peptides over initial leads: vs initial peptide leads
KDM4C [4] = assay: HDX-MS of KDM4C ± peptide; assay type: binding

Substance | KDM4C inhibition (control peptide) (KDM4C [1]) | inhibitory activity in cells (KDM4C [2]) | inhibition constants (KDM4C [3]) | apparent increase in activity of second generation peptides over initial leads (KDM4C [3]) | isotopic distribution / EX1 kinetics in site D (331–344) (KDM4C [4]; KDM4C 331–344, HDX time course, bimodal fit with HX-Express, peptide 160 μM) | HDX of helix 359–370 (KDM4C [4]; KDM4C 359–370, Figure S1 / data not shown)
H-ACKWMDDGYCGGG-NH2 (disulfide 2-10 (inferred)) [Peptide 4] | noninhibitory |  |  |  |  | 
H-CKWMADGYC-NH2 (disulfide 1-9 (inferred)) [Peptide 3] |  | none of the peptides showed any inhibitory activity | in the high μM range | 10 fold |  | 
H-ACYTRNMNQC-NH2 (also: sidechain bridge or staple (positions not given here)) [Peptide 2] |  | none of the peptides showed any inhibitory activity | in the high μM range | 10 fold | confirmed the occurrence of EX1 kinetics | the perturbation in HDX along site 359–370 was only significant after 10 min; also recorded: Helix 359–370 shows reduced HDX (significant only after 10 min; see Figure S1, Supporting Information) but no EX1 exchange kinetics
